According to publication PMC7146288, “Microwave Assisted Synthesis of 4-Phenylquinazolin-2(1H)-one Derivatives that Inhibit Vasopressor Tonus in Rat Thoracic Aorta” (Molecules, 2020):
“Also recorded” adds a separate entry of the source.

How the values were obtained:
[1] = tested on: rat thoracic aorta rings, endothelium-intact (E+); assay: Vascular reactivity: vasorelaxation in endothelium-intact (E+) aortic rings pre-contracted with Phe 1 µM; set-up: species or system Male Wistar normotensive rats (Rattus norvegicus); conditions: for IC50: Rattus norvegicus, rings pre-contracted with Phe 1 µM, cumulative 1-30 µM, mean ± SEM, read-out: IC50 vasorelaxation response in endothelium-intact (E+) aorta arterial vessels; for relaxation at the highest concentration: 30 μM, endothelium-intact aorta rings pre-contracted with Phe 1 µM
Method: (§1) All compounds were dissolved with DMSO 100% to obtain a stock solution of 10 mM. In all experiments, the stock solution was employed to obtain a final concentration diluted in Krebs Henseleit solution (vascular reactivity assay) and DMEM supplemented with 10% FBS (cytotoxicity assay).
Male Wistar normotensive rats (Rattus norvegicus) weighing between 200 and 300 grams were supplied by the Central Animal Facility of Fluminense Federal University (NAL-UFF) (Rio de Janeiro, Brazil). The animals were kept in standard environmental conditions of temperature (22 ± 1 °C) and 12 h light/dark cycle, with free access to food (Purina, Brazil) and water. All experiments were conducted in accordance to the guidelines established by National Council for Animal Experimentation Control (CONCEA, Brazil). This study was approved by the Ethics Committee in the Use of Animals of the Fluminense Federal University (CEUA-UFF), certificate under protocol number: 795/2017.
(§2) Animals were anesthetized by isoflurane (1% mg/kg) inhalation and, after the loss of motor control, rats were euthanized by cervical dislocation. Subsequently, the thoracic aorta was dissected and cleaned of connective tissue to obtain rings 4 mm in length that were suspended in a 15 mL organ bath (Panlab four chamber organ bath, AD-Instruments, Sydney, Australia). Tissues were kept in Krebs Henseleit solution at 37 °C with the following composition (mM): NaCl 120; KCl 5.0; MgCl2 1.1; CaCl2 2.5; NaH2PO4 1.2; N-[2-hydroxyethyl] piperazine-N’-[2-ethane-sulfonic acid] (HEPES) 10; NaHCO3 15; and glucose 11, bubbled constantly with a gas mixture of 95% O2 and 5% CO2 (pH 7.4). Each arterial segment was suspended between two steel hooks connected to an isometric transducer to measure tension through a data acquisition system (PowerLab 8 and LabChart Pro, AD-Instruments, Australia). […] Functional endothelial integrity was assessed by the ability of 10 µM ACh to induce ≥70% relaxation in vessels pre-contracted with 1 µM Phe.
Values are expressed as mean ± standard error of mean (SEM). A P-value less than 0.05 was termed statistically significant. The IC50 values (defined as the concentration of the test compound that reduced 50% of the maximal contraction) were obtained by actual concentration-response curve fitting using GraphPad Prism 6.0 software (GraphPad Software, San Diego, CA). Statistical significance was determined using Bonferroni´s multiple comparison for vascular reactivity experiments and using Turkey´s multiple comparison for cytotoxicity evaluation following two-way analysis of variance (ANOVA).
Figure 3 Concentration-response curves for compounds 2a–f and control (vehicle: DMSO) in intact endothelium aortic rings pre-contracted with Phe 1 µM. Cumulative concentrations (1 µM, 3 µM, 10 µM and 30 µM) were added to the Phe contraction plateau. DMSO was employed at the same volume used to dissolve the compound stock solution (maximum final concentration at 0.3%). All data are expressed as mean ± standard error of the mean (SEM) (n = 4–5). (* P < 0.05; *** P < 0.001; **** P < 0.0001 compound vs. control).

[2] = MTT cell viability (cytotoxicity) assay; assay type: cell-based, African Green monkey (Cercopithecus aethiops); conditions: African green monkey (Cercopithecus aethiops), VERO kidney cells, 48 h exposure, % of vehicle control, read-out: percentage of cell viability (living cells)
Method: as §1
(§3) A 3-[4,5-dimehyl-2-thiazolyl]-2,5-diphenyl-2H-tetrazoliumbromide (MTT) assay was employed to assess the general cytotoxicity for 4-phenylquinazolin-2(1H)-one derivatives. […]
(§4) The MTT cell viability assay investigates the number of viable cells by measuring the mitochondrial-dependent reduction of water-soluble tetrazolium into an insoluble formazan product. The absorbance obtained is directly proportional to the activity of functional mitochondria and represents the number of viable cells. […] Absorbance was measured with a plate reader (SpectraMax 190, CA, USA) at a wavelength of 550 nm and expressed as a percentage of the control (vehicle).
(§5) Figure 5 Cell viability assessed by the MTT method on the VERO cell line after 48 h of exposure to the compounds. […] All data are expressed as mean ± standard error of the mean (SEM) (n = 22–25). […]

VERO cells = assay: MTT cell viability (cytotoxicity) assay; assay type: cell-based, African Green monkey (Cercopithecus aethiops); conditions: 30 µM, 48 h exposure
Method: as §1, §3, §4, §5

[3] = tested on: rat thoracic aorta rings, endothelium-denuded (E−); assay: Vascular reactivity: vasorelaxation in endothelium-denuded (E−) aortic rings pre-contracted with Phe 1 µM; set-up: species or system Male Wistar normotensive rats (Rattus norvegicus); conditions: endothelium-denuded rings pre-contracted with Phe 1 µM; cumulative up to 30 µM
Method: A representative record of cumulative concentrations of compound 2f (1 μM, 3 μM, 10 μM and 30 μM) on aortic rings endothelium-intact and endothelium-denuded pre-contracted with Phe 1 μM are shown in Figure 4. Phe induced a steady tone in both preparations that were greater in endothelium denuded rings.
as §2, with “7.4).” for “7.4). Each arterial segment was suspended between two steel hooks connected to an isometric transducer to measure tension through a data acquisition system (PowerLab 8 and LabChart Pro, AD-Instruments, Australia).”
Figure 4 Concentration-response curves of compound 2f in endothelium-intact (E+) and endothelium-denuded (E−) aortic rings pre-contracted with Phe 1 µM. […] All data are expressed as mean ± standard error of the mean (SEM) (n = 4). […]

Compound `O=c1nc(-c2ccccc2F)c2cc(Cl)ccc2[nH]1` [Compound 2d] has an IC50 [1] of 26.5 ± 8.98 µM.
With `O=c1nc(-c2ccccc2)c2cc([N+](=O)[O-])ccc2[nH]1` [Compound 2b] the IC50 [1] was 16.4 ± 3.5 µM, the viability at 48 h, 30 µM [2] was 69% and the “cytotoxicity according to ISO 10993: 5 (viability below 70% = cytotoxic)” value (VERO cells) was “cytotoxic; also recorded: induced cytotoxicity”.
With `Cc1ccccc1-c1nc(=O)[nH]c2ccc(Cl)cc12` [Compound 2c] the “relaxation at the highest concentration” value [1] was “around 90%” and the IC50 [1] was 4.31 ± 0.9 µM.
With `Cn1c(=O)nc(-c2ccccc2)c2cc(Cl)ccc21` [Compound 2f] the “vasorelaxation in the absence of the endothelium” value [3] was “abolished”, the “relaxation at the highest concentration” value [1] was “around 90%” and the IC50 [1] was 3.41 ± 0.65 µM.
Compound `O=c1nc(-c2ccccc2)c2ccccc2[nH]1` [Compound 2a] has an IC50 [1] of 39.7 ± 6.77 µM.
With `O=c1nc(-c2ccccc2)c2cc(Br)ccc2[nH]1` [Compound 2e] the “relaxation at the highest concentration” value [1] was “around 90%” and the IC50 [1] was 4.94 ± 1.21 µM.
